Values after ≈ are worked out from the molar mass of the structure shown. Like-named read-outs stand apart in the source and are kept apart here.
Columns and labels:
[1] = system: herpes simplex virus type 1 (HSV-1); assay: microbe, parasite or virus in culture; assay type: cell-based; conditions: Human alphaherpesvirus 1, HEL, read-out: EC50 HSV-1 (Kos strain)
[2] = system: herpes simplex virus type 2 (HSV-2); assay: microbe, parasite or virus in culture; assay type: cell-based; conditions: Human alphaherpesvirus 2, HEL, read-out: EC50 HSV-2 (G strain)
[3] = system: Varicella-Zoster Virus (VZV); assay: microbe, parasite or virus in culture; assay type: cell-based; conditions: Human alphaherpesvirus 3, HEL
[4] = system: Human Cytomegalovirus (HCMV); assay: microbe, parasite or virus in culture; assay type: cell-based
Vaccinia virus = assay: organism not typed; assay type: cell-based; conditions: HEL
Cowpox virus (Brighton) = assay: microbe, parasite or virus in culture; assay type: cell-based; conditions: Cowpox virus, HEL, read-out: EC50 Cowpox virus Brighton
Orf virus (NZ2) = assay: microbe, parasite or virus in culture; assay type: cell-based; conditions: Orf virus, HEL, read-out: EC50 Orf virus NZ2
[5] = system: primate polyomavirus (SV40); assay: microbe, parasite or virus in culture; assay type: cell-based, simian polyomavirus SV40; conditions: for EC50: Polyomavirus sp., BSC-1, in Primates
murine polyomavirus = assay: microbe, parasite or virus in culture; assay type: cell-based; conditions: for EC50: Alphapolyomavirus muris, UC1, UC1B
HEL cells = conditions: HEL cells, microscopy
HSB-2 cells = conditions: human
MOLT-3 cells = conditions: human
in vitro [6] = conditions: human
in vitro [7] = conditions: African green monkey
in vitro [8] = conditions: mouse
in vitro [9] = conditions: human; remark: listed apart in the source
[10] = read-out: EC50 VZV 07/1 strain (HEL cells)
[11] = read-out: EC50 VZV OKA strain (HEL cells)
[12] = Human betaherpesvirus 5, AD169, HEL, read-out: EC50 HCMV AD-169 strain (HEL cells)
[13] = Human betaherpesvirus 5, HEL, read-out: EC50 HCMV Davis strain (HEL cells)
[14] = read-out: EC50 Vaccinia Virus Lister
[15] = Orthopoxvirus vaccinia, read-out: EC50 Vaccinia Virus Copenhagen
[16] = Orthopoxvirus vaccinia, read-out: EC50 Vaccinia Virus Lederle
[17] = Orthopoxvirus vaccinia, read-out: EC50 Vaccinia Virus WR
[18] = read-out: antiviral activity (EC50) SV40 PML-1 strain EK
[19] = read-out: antiviral activity (EC50) SV40 PML-2 strain DAR
[20] = read-out: antiviral activity (EC50) SV40 strain A2895
[21] = read-out: antiviral activity (EC50) 2PTA2
[22] = read-out: antiviral activity (EC50) MN/RDE Toronto
[23] = read-out: antiviral activity (EC50) LID-1
[24] = read-out: antiviral activity (EC50) PTA
[25] = read-out: EC50 VZV YS strain (HEL cells)
[26] = read-out: EC50 VZV YS-R strain (HEL cells)

Row | Structure (SMILES) | EC50 [3, 10] | EC50 [3, 11] | EC50 [4, 12] | EC50 [4, 13] | EC50 (Vaccinia virus; [14]) | EC50 (Vaccinia virus; [15]) | EC50 (Vaccinia virus; [16]) | EC50 (Vaccinia virus; [17]) | EC50 (Cowpox virus (Brighton)) | EC50 (Orf virus (NZ2)) | selectivity index SV40 PML-1 strain EK [5] | selectivity index SV40 PML-2 strain DAR [5] | selectivity index SV40 strain A2895 [5] | EC50 [5, 18] | EC50 [5, 19] | EC50 [5, 20] | selectivity index 2PTA2 (murine polyomavirus) | selectivity index MN/RDE Toronto (murine polyomavirus) | EC50 (murine polyomavirus; [21]) | EC50 (murine polyomavirus; [22]) | other results
1 | Nc1nc2c(ncn2COCCO)c(=O)[nH]1 [Acyclovir, reference compound] | – | – | – | – | – | – | – | – | – | – | – | – | – | – | – | – | – | – | – | – | EC50 [1]: 0.032 µg/mL (≈ 0.142 µM); EC50 [2]: 0.032 µg/mL (≈ 0.142 µM)
2 | NC(=NC(=O)NC[C@@H](CO)OCP(=O)(O)O)NC=O.[Na] [Compound 3a, Sodium 3-formyl-2-{[(2S)-3-hydroxy-2-(phosphono-methoxy)propyl]carbamoyl}guanidine] | 46 ng/mL | 42 ng/mL | 100 ng/mL | 120 ng/mL | 7.61 µg/mL | 5.84 µg/mL | 7.97 µg/mL | 6.34 µg/mL | 12.6 µg/mL | 0.37 µg/mL | >20 | >24 | >34 | 10 µg/mL | 8.24 µg/mL | 5.92 µg/mL | >13 | >26 | 14.8 µg/mL | 7.57 µg/mL | Toxicity MCC (microscop) (HEL cells): >100 µg/mL; Toxicity MCC (microscopy), HSB-2 cells (HSB-2 cells): >200 µg/mL; Toxicity MCC (microscopy), MOLT-3 cells (MOLT-3 cells): 200 µg/mL; CC50 at 3 days (in vitro [6]): > 50 µg/mL; CC50 (in vitro [7]): > 200 µg/mL; CC50 (in vitro [8]): > 200 µg/mL; CC50 (in vitro [9]): > 100 µg/mL
3 | NC(N)=NC(=O)NC[C@@H](CO)OCP(=O)(O)O [Compound 10, 2-{[(2S)-3-Hydroxy-2-(Phosphonomethoxy)propyl]carbamoyl}guanidine] | – | – | – | – | – | – | – | – | – | – | 1 | 1 | 1 | > 200 µg/mL | > 200 µg/mL | > 200 µg/mL | 1 | 1 | > 200 µg/mL | > 200 µg/mL | selectivity index LID-1 (murine polyomavirus): 1; selectivity index PTA (murine polyomavirus): 1; EC50 (murine polyomavirus; [23]): > 200 µg/mL; EC50 (murine polyomavirus; [24]): > 200 µg/mL; Toxicity MCC (microscopy), HSB-2 cells (HSB-2 cells): >200 µg/mL; CC50 (in vitro [7]): > 200 µg/mL; CC50 (in vitro [8]): > 200 µg/mL
4 | Nc1ncn(C[C@H]2COP(=O)(O)CO2)c(=O)n1 [Compound 11, 1-{[(5S)-2-Hydroxy-2-oxido-1,4,2-dioxaphosphinan-5-yl]methyl}-5-azacytosine] | 50 ng/mL (≈ 0.191 µM) | 80 ng/mL (≈ 0.305 µM) | 93 ng/mL (≈ 0.355 µM) | 61 ng/mL (≈ 0.233 µM) | 1.38 µg/mL (≈ 5.26 µM) | 1.76 µg/mL (≈ 6.71 µM) | 3.1 µg/mL (≈ 11.8 µM) | 2.08 µg/mL (≈ 7.93 µM) | 5.64 µg/mL (≈ 21.5 µM) | 0.09 µg/mL (≈ 0.343 µM) | 8 | 7 | 8 | 4.6 µg/mL (≈ 17.5 µM) | 5.05 µg/mL (≈ 19.3 µM) | 4.39 µg/mL (≈ 16.7 µM) | 13 | 17 | 4.39 µg/mL (≈ 16.7 µM) | 3.43 µg/mL (≈ 13.1 µM) | EC50 [1]: 0.017 µg/mL (≈ 0.0648 µM); EC50 [2]: 0.58 µg/mL (≈ 2.21 µM); selectivity index LID-1 (murine polyomavirus): 7; selectivity index PTA (murine polyomavirus): 7; EC50 (murine polyomavirus; [23]): 8.05 µg/mL (≈ 30.7 µM); EC50 (murine polyomavirus; [24]): 8.59 µg/mL (≈ 32.8 µM); CC50 (in vitro [6]): > 50 µg/mL; CC50 (in vitro [7]): 36.4 µg/mL (≈ 139 µM); CC50 (in vitro [8]): 58.4 µg/mL (≈ 223 µM)
5 | CCCCCCCCCCCCCCCCOCCOP1(=O)CO[C@@H](Cn2cnc(N)nc2=O)CO1 (stereo partly drawn) [Compound 12, hexadecyloxyethyl ester of 1-{[(5S)-2-Hydroxy-2-oxido-1,4,2-dioxaphosphinan-5-yl]methyl}-5-azacytosine] | < 0.02 ng/mL | < 0.02 ng/mL | < 0.02 ng/mL | < 0.02 ng/mL | < 0.032 µg/mL | < 0.032 µg/mL | < 0.032 µg/mL | 0.072 µg/mL (≈ 0.136 µM) | < 0.032 µg/mL | < 0.032 µg/mL | 57.6 | 38.7 | 44.5 | 0.15 µg/mL (≈ 0.283 µM) | 0.18 µg/mL (≈ 0.339 µM) | 0.16 µg/mL (≈ 0.302 µM) | 33.8 | 34.9 | 0.3 µg/mL (≈ 0.565 µM) | 0.29 µg/mL (≈ 0.547 µM) | EC50 [3, 25]: < 0.02 ng/mL; EC50 [3, 26]: < 0.02 ng/mL; EC50 [1]: 0.072 µg/mL (≈ 0.136 µM); EC50 [2]: 0.36 µg/mL (≈ 0.678 µM); selectivity index LID-1 (murine polyomavirus): 21.3; selectivity index PTA (murine polyomavirus): 35.6; EC50 (murine polyomavirus; [23]): 0.47 µg/mL (≈ 0.886 µM); EC50 (murine polyomavirus; [24]): 0.28 µg/mL (≈ 0.528 µM); CC50 (in vitro [6]): 6 µg/mL (≈ 11.3 µM); CC50 (in vitro [7]): 7.1 µg/mL (≈ 13.4 µM); CC50 (in vitro [8]): 10 µg/mL (≈ 18.8 µM)
6 | CCCCCCCCCCCCCCCCCCOP1(=O)CO[C@@H](Cn2cnc(N)nc2=O)CO1 (stereo partly drawn) [Compound 15, octadecyl ester of 1-{[(5S)-2-hydroxy-2-oxido-1,4,2-dioxaphosphinan-5-yl]methyl}-5-azacytosine] | – | 63 ng/mL (≈ 0.122 µM) | 3.7 ng/mL (≈ 0.00719 µM) | 1.4 ng/mL (≈ 0.00272 µM) | – | – | – | – | – | – | – | – | – | – | – | – | – | – | – | – | CC50 (in vitro [6]): > 100 µg/mL
7 | Nc1cnn(C[C@@H](CO)OCP(=O)(O)O)c(=O)n1 [HPMP-6-azaC analogue, (S)-1-[3-hydroxy-2-(phosphonomethoxy)propyl]-6-azacytosine] | 18400 ng/mL (≈ 65.7 µM) | 38200 ng/mL (≈ 136 µM) | 30000 ng/mL (≈ 107 µM) | 37300 ng/mL (≈ 133 µM) | ≥ 79.3 µg/mL | > 100 µg/mL | ≥ 81.6 µg/mL | > 100 µg/mL | > 100 µg/mL | ≥ 63.8 µg/mL | – | – | – | – | – | – | – | – | – | – | EC50 [3, 25]: 42000 ng/mL (≈ 150 µM); EC50 [3, 26]: 17000 ng/mL (≈ 60.7 µM); CC50 (in vitro [6]): > 50 µg/mL
